Source: patent US6620833B1, “Substituted benzimidazoles, production and use thereof as agents for combating parasitic protozoas” (Bayer Aktiengesellschaft, priority 1998, dated 2003)

Tests used:
Assay type in all cases: in vivo
[1] = tested on: Eimeria acervulina, Eimeria maxima and Eimeria tenella; test: Cage experiment on coccidiosis/chicks, mixed experimental infection; conditions: for dropping scores / lesion score: assessment 0 to 6; for mortality n: dead animals/animals employed
Method: 8 to 12 day-old male chicks (e.g. LSL Brinkschulte/Senden) which have been reared coccidia-free receive the compounds according to the invention (test substances) in the concentration indicated in ppm with the feed from 3 days before (day −3) infection (=a.i.) until 8 (9) days after infection (=p.i.). 3 animals are kept in each cage. One or more groups of this type are employed per dose. Infection is carried out by means of a stomach tube directly into the crop with approximately 100,000 sporulated oocysts of Eimeria acervulina and with approximately 30,000 oocysts each of E. maxima and 40,000 sporulated oocysts of E. tenella. These are highly virulent strains. The exact infection dose is adjusted so that, if possible, one of three experimentally infected untreated chicks dies due to the infection. For assessment of the efficacy, the following criteria are taken into account: weight increase from the start of the experiment to the end of the experiment, death rate due to infection, macroscopic assessment of the faeces with respect to diarrhoea and excretion of blood on days 5 and 7 p.i. (assessment 0 to 6), macroscopic assessment of the intestinal mucosa, in particular of the appendices (assessment 0 to 6) and the oocyst excretion as well as the proportion (in %) of the oocysts sporulating in the course of 24 hours. The number of oocysts in the faeces was determined with the aid of a McMaster counting chamber (see Engelbrecht and coworkers “Parasitologische Arbeitsmethoden in Medizin and Veterinärmedizin” [Parasitological Working Methods in Medicine and Veterinary Medicine], Akademie-Verlag, Berlin (1965)). The individual findings are related to the untreated non-infected control groups and a total score is calculated (cf. A. Haberkorn (1986), pp. 263 to 270 in Research in Avian Coccidiosis ed L. R. McDougald, L. P. Joyner, P. L. Long, Proceedings of the Georgia Coccidiosis Conference, Nov. 18-20, 1985. Athens/Georgia USA).
In the column “ppm”, the concentration of the active compound employed in the feed is indicated in ppm.
In the column “mortality” the percentage of the dead animals is indicated under % and the number of dead animals/animals employed in the experiment is indicated under n.
In the column “weight % of not inf. control” the ratio of the weight of the treated animals to the weight of the non-infected control group is indicated.
In the columns “dropping scores”, “lesion score” and “oocyst control”, individual details of the action are given.
In the column “% efficacy”, the total score is assessed; 0% means no action, 100% means full action.

Eimeria acervulina = test: Cage experiment on coccidiosis/chicks, E. acervulina readout; conditions: for Efficacy against Eimeria acervulina: first symbol of cell; for Efficacy against Eimeria acervulina: key: 2=full action; 1=slight action; 0=inactive; D=death
Eimeria maxima = test: Cage experiment on coccidiosis/chicks, E. maxima readout; conditions: for Efficacy against Eimeria maxima: second symbol of cell; for Efficacy against Eimeria maxima: key: 2=full action; 1=slight action; 0=inactive; D=death
Eimeria tenella = test: Cage experiment on coccidiosis/chicks, E. tenella readout; conditions: for Efficacy against Eimeria tenella: third symbol of cell; for Efficacy against Eimeria tenella: key: 2=full action; 1=slight action; 0=inactive; D=death

SMILES: CCN(Cn1c(C(F)(F)F)nc2c(Br)cc3c(c21)OC(F)(F)C(F)(F)O3)C(=O)OC [Ex. 1]
- % efficacy tot. ([1]; Table 1, 7.5 ppm in feed): 65%
- mortality % ([1]; Table 1, 7.5 ppm in feed): 0%
- oocyst in % of inf. control tot. ([1]; Table 1, 7.5 ppm in feed): 1.3%
- weight % of not inf. control ([1]; Table 1, 7.5 ppm in feed): 76%
- dropping scores ([1]; Table 1, 7.5 ppm in feed): 6
- lesion score ([1]; Table 1, 7.5 ppm in feed): 5.3
- mortality n ([1]; Table 1, 7.5 ppm in feed): 0/3
- % efficacy tot. ([1]; Table 1, 10 ppm in feed): 75%
- mortality % ([1]; Table 1, 10 ppm in feed): 0%
- oocyst in % of inf. control tot. ([1]; Table 1, 10 ppm in feed): 0%
- weight % of not inf. control ([1]; Table 1, 10 ppm in feed): 84%
- dropping scores ([1]; Table 1, 10 ppm in feed): 6
- lesion score ([1]; Table 1, 10 ppm in feed): 3.3
- mortality n ([1]; Table 1, 10 ppm in feed): 0/3
- % efficacy tot. ([1]; Table 2, 1 ppm in feed): 36%
- mortality % ([1]; Table 2, 1 ppm in feed): 33%
- oocyst in % of inf. control tot. ([1]; Table 2, 1 ppm in feed): 82%
- weight % of not inf. control ([1]; Table 2, 1 ppm in feed): 31%
- dropping scores ([1]; Table 2, 1 ppm in feed): 6
- lesion score ([1]; Table 2, 1 ppm in feed): 6
- mortality n ([1]; Table 2, 1 ppm in feed): 1/3
- % efficacy tot. ([1]; Table 2, 2.5 ppm in feed): 36%
- mortality % ([1]; Table 2, 2.5 ppm in feed): 33%
- oocyst in % of inf. control tot. ([1]; Table 2, 2.5 ppm in feed): 58%
- weight % of not inf. control ([1]; Table 2, 2.5 ppm in feed): 42%
- dropping scores ([1]; Table 2, 2.5 ppm in feed): 4-6
- lesion score ([1]; Table 2, 2.5 ppm in feed): 6
- mortality n ([1]; Table 2, 2.5 ppm in feed): 1/3
- % efficacy tot. ([1]; Table 2, 5 ppm in feed): 90%
- mortality % ([1]; Table 2, 5 ppm in feed): 0%
- oocyst in % of inf. control tot. ([1]; Table 2, 5 ppm in feed): 37%
- weight % of not inf. control ([1]; Table 2, 5 ppm in feed): 110%
- dropping scores ([1]; Table 2, 5 ppm in feed): 1
- lesion score ([1]; Table 2, 5 ppm in feed): 0
- mortality n ([1]; Table 2, 5 ppm in feed): 0/3
- % efficacy tot. ([1]; Table 3, 5 ppm in feed): 45%
- mortality % ([1]; Table 3, 5 ppm in feed): 0%
- oocyst in % of inf. control tot. ([1]; Table 3, 5 ppm in feed): 12%
- weight % of not inf. control ([1]; Table 3, 5 ppm in feed): 72%
- dropping scores ([1]; Table 3, 5 ppm in feed): 6
- lesion score ([1]; Table 3, 5 ppm in feed): 6
- mortality n ([1]; Table 3, 5 ppm in feed): 0/3
- % efficacy tot. ([1]; Table 3, 7.5 ppm in feed): 65%
- mortality % ([1]; Table 3, 7.5 ppm in feed): 0%
- oocyst in % of inf. control tot. ([1]; Table 3, 7.5 ppm in feed): 1.3%
- weight % of not inf. control ([1]; Table 3, 7.5 ppm in feed): 76%
- dropping scores ([1]; Table 3, 7.5 ppm in feed): 6
- lesion score ([1]; Table 3, 7.5 ppm in feed): 5.3
- mortality n ([1]; Table 3, 7.5 ppm in feed): 0/3
- % efficacy tot. ([1]; Table 3, 10 ppm in feed): 75%
- mortality % ([1]; Table 3, 10 ppm in feed): 0%
- oocyst in % of inf. control tot. ([1]; Table 3, 10 ppm in feed): 0%
- weight % of not inf. control ([1]; Table 3, 10 ppm in feed): 84%
- dropping scores ([1]; Table 3, 10 ppm in feed): 6
- lesion score ([1]; Table 3, 10 ppm in feed): 3.3
- mortality n ([1]; Table 3, 10 ppm in feed): 0/3
- oocyst in % of inf. control ac. (Eimeria acervulina; Table 1, 7.5 ppm in feed): 3%
- oocyst in % of inf. control ac. (Eimeria acervulina; Table 1, 10 ppm in feed): 0%
- oocyst in % of inf. control ac. (Eimeria acervulina; Table 2, 1 ppm in feed): 49%
- oocyst in % of inf. control ac. (Eimeria acervulina; Table 2, 2.5 ppm in feed): 19%
- oocyst in % of inf. control ac. (Eimeria acervulina; Table 2, 5 ppm in feed): 1%
- oocyst in % of inf. control ac. (Eimeria acervulina; Table 3, 5 ppm in feed): 6%
- oocyst in % of inf. control ac. (Eimeria acervulina; Table 3, 7.5 ppm in feed): 3%
- oocyst in % of inf. control ac. (Eimeria acervulina; Table 3, 10 ppm in feed): 0%
- Efficacy against Eimeria acervulina (Eimeria acervulina; Table 4, dose 2.5 ppm): 1
- Efficacy against Eimeria acervulina (Eimeria acervulina; Table 4, dose 5 ppm): 2
- Efficacy against Eimeria acervulina (Eimeria acervulina; Table 4, dose 10 ppm): 2
- oocyst in % of inf. control max. (Eimeria maxima; Table 1, 7.5 ppm in feed): 0%
- oocyst in % of inf. control max. (Eimeria maxima; Table 1, 10 ppm in feed): 0%
- oocyst in % of inf. control max. (Eimeria maxima; Table 2, 1 ppm in feed): 100%
- oocyst in % of inf. control max. (Eimeria maxima; Table 2, 2.5 ppm in feed): 100%
- oocyst in % of inf. control max. (Eimeria maxima; Table 2, 5 ppm in feed): 100%
- oocyst in % of inf. control max. (Eimeria maxima; Table 3, 5 ppm in feed): 0%
- oocyst in % of inf. control max. (Eimeria maxima; Table 3, 7.5 ppm in feed): 0%
- oocyst in % of inf. control max. (Eimeria maxima; Table 3, 10 ppm in feed): 0%
- Efficacy against Eimeria maxima (Eimeria maxima; Table 4, dose 2.5 ppm): 1
- Efficacy against Eimeria maxima (Eimeria maxima; Table 4, dose 5 ppm): 2
- Efficacy against Eimeria maxima (Eimeria maxima; Table 4, dose 10 ppm): 2
- oocyst in % of inf. control ten. (Eimeria tenella; Table 1, 7.5 ppm in feed): 1%
- oocyst in % of inf. control ten. (Eimeria tenella; Table 1, 10 ppm in feed): 1%
- oocyst in % of inf. control ten. (Eimeria tenella; Table 2, 1 ppm in feed): 97%
- oocyst in % of inf. control ten. (Eimeria tenella; Table 2, 2.5 ppm in feed): 55%
- oocyst in % of inf. control ten. (Eimeria tenella; Table 2, 5 ppm in feed): 11%
- oocyst in % of inf. control ten. (Eimeria tenella; Table 3, 5 ppm in feed): 30%
- oocyst in % of inf. control ten. (Eimeria tenella; Table 3, 7.5 ppm in feed): 1%
- oocyst in % of inf. control ten. (Eimeria tenella; Table 3, 10 ppm in feed): 1%
- Efficacy against Eimeria tenella (Eimeria tenella; Table 4, dose 2.5 ppm): 1
- Efficacy against Eimeria tenella (Eimeria tenella; Table 4, dose 5 ppm): 2
- Efficacy against Eimeria tenella (Eimeria tenella; Table 4, dose 10 ppm): 2
